tested on: HCVcc-RLuc; assay: HCVcc-RLuc assay, combination of compound 3 with anti-HCV drugs (CalcuSyn / MacSynergy II); assay type: cell-based, Hepatitis C virus; settings: not given

Row | Molecule | CalcuSyn CI value (combination index) | CalcuSyn synergy volume (level of synergy) | MacSynergy synergy volume (level of synergy)
1 | COC(=O)N[C@H](C(=O)N1CCC[C@H]1c1nc(-c2ccc(-c3ccc(-c4c[nH]c([C@@H]5CCCN5C(=O)[C@@H](NC(=O)OC)C(C)C)n4)cc3)cc2)c[nH]1)C(C)C [Daclatasvir] | 0.510 | +++ (key: +/−: nearly additive (0.9 < CI < 1.1); ++: moderate synergy (0.7 < CI < 0.85); +++: synergy (0.3 < CI < 0.7)) | 
2 | NC(=O)c1ncn([C@@H]2O[C@H](CO)[C@@H](O)[C@H]2O)n1 [Ribavirin] | 0.770 | ++ (key: +/−: nearly additive (0.9 < CI < 1.1); ++: moderate synergy (0.7 < CI < 0.85); +++: synergy (0.3 < CI < 0.7)) | +++ (key: ++: moderate synergy (5 < log volume < 9); +++: strong synergy (log volume > 9))
3 | CCC[C@H](NC(=O)[C@@H]1[C@H]2CCC[C@H]2CN1C(=O)[C@@H](NC(=O)[C@@H](NC(=O)c1cnccn1)C1CCCCC1)C(C)(C)C)C(=O)C(=O)NC1CC1 [Telaprevir] | 0.775 | ++ (key: +/−: nearly additive (0.9 < CI < 1.1); ++: moderate synergy (0.7 < CI < 0.85); +++: synergy (0.3 < CI < 0.7)) | +++ (key: ++: moderate synergy (5 < log volume < 9); +++: strong synergy (log volume > 9))
4 | IFN-α | 0.545 | +++ (key: +/−: nearly additive (0.9 < CI < 1.1); ++: moderate synergy (0.7 < CI < 0.85); +++: synergy (0.3 < CI < 0.7)) | 

same assay, conditions: tested drug combined with compound 3 (SID 144187742)

Row | Molecule | CalcuSyn synergy volume (level of synergy)
5 | C[C@@]1(O)[C@H](O)[C@@H](CO)O[C@H]1n1ccc(N)nc1=O [2′-C-methylcytidine] | +/− (nearly additive (0.9 < CI < 1.1))

same assay, conditions: tested drug combined with compound 3 (SID 144187742) at or near their EC50 values; mean ± SEM, n ≥ 6

Row | Molecule | CalcuSyn CI value (combination index)
6 | C[C@@]1(O)[C@H](O)[C@@H](CO)O[C@H]1n1ccc(N)nc1=O [2′-C-methylcytidine] | 1.10

same assay, conditions: tested drug combined with compound 3; Bliss independence model, MacSynergy II

Row | Molecule | MacSynergy synergy volume (level of synergy)
7 | C[C@@]1(O)[C@H](O)[C@@H](CO)O[C@H]1n1ccc(N)nc1=O [2′-C-methylcytidine] | +++ (strong synergy (log volume > 9))

tested on: not listed separately; assay: Aqueous solubility in PBS; assay type: physicochemical; settings: not given

Row | Molecule | Sol.
8 | Cc1cc(C)cc(-c2nc(CN3CCC(C(=O)NCCCN4C[C@H](C)C[C@H](C)C4)CC3)c(C)o2)c1 [Compound 4] | >71.0 µg/mL
9 | Cc1ccccc1-c1nc(CN2CCC(C(=O)NCCCN3CCCC(C)C3)CC2)c(C)o1 (centres unmarked) [Compound 6] | >67.0 µg/mL
10 | Cc1ccccc1-c1nc(CN2CCC(C(=O)NCCCN3CCCCC3)CC2)c(C)o1 [Compound 9] | >65.0 µg/mL
11 | Cc1ccccc1-c1nc(CN2CCC(C(=O)NCCCN3CCOCC3)CC2)c(C)o1 [Compound 12] | >65.0 µg/mL
12 | Cc1ccccc1-c1nc(CN2CCC(C(=O)N3CCN(C4CCN(C)CC4)CC3)CC2)c(C)o1 [Compound 13] | >71.0 µg/mL
13 | Cc1oc(-c2ccc(Cl)cc2)nc1CN1CCC(C(=O)NCCCN2C[C@H](C)C[C@H](C)C2)CC1 [Compound 16] | >72.0 µg/mL
14 | Cc1cccc(-c2nc(CN3CCC(C(=O)NCCCN4C[C@H](C)C[C@H](C)C4)CC3)c(C)o2)c1 [Compound 18] | >69.0 µg/mL
15 | Cc1ccccc1-c1nc(CN2CCC(C(=O)NCCN3C[C@H](C)C[C@H](C)C3)CC2)c(C)o1 [Compound 20] | >67.0 µg/mL
16 | Cc1ccc(-c2nc(CN3CCC(C(=O)NCCCN4C[C@H](C)C[C@H](C)C4)CC3)c(C)o2)cc1C [Compound 22] | >71.0 µg/mL
17 | Cc1cccc(C)c1-c1nc(CN2CCC(C(=O)NCCCN3C[C@H](C)C[C@H](C)C3)CC2)c(C)o1 [Compound 23] | 55.9 µg/mL
18 | Cc1ccccc1-c1nc(CN2CCC(C(=O)NCCCN3C[C@H](C)C[C@H](C)C3)CC2)c(C)o1 [Compound 25] | >69.0 µg/mL
19 | Cc1ccccc1-c1nc(CN2CCC(C(=O)NCCCN3C[C@H](C)C[C@H](C)C3)CC2)c(C)o1 [Compound 26] | >69.0 µg/mL
20 | Cc1ccccc1-c1nc(CN2CCC(C(=O)NCCCN3C[C@H](C)C[C@H](C)C3)CC2)c(C)o1 [Compound 27] | >69.0 µg/mL
21 | Cc1ccccc1-c1nc(CN2CCC(C(=O)NCCCN3C[C@H](C)C[C@H](C)C3)CC2)c(C)o1 [Compound 28] | 54.8 µg/mL
22 | Cc1ccccc1-c1nc(CN2CCC(C(=O)NCCCN3C[C@H](C)C[C@H](C)C3)CC2)c(C)o1 [Compound 29] | >69.0 µg/mL
23 | Cc1oc(-c2c(F)cccc2F)nc1CN1CCC(C(=O)NCCCN2C[C@H](C)C[C@H](C)C2)CC1 [Compound 30] | >72.0 µg/mL

Row | Molecule | Sol.
24 | Cc1ccc(C)c(-c2nc(CN3CCC(C(=O)NCCCN4C[C@H](C)C[C@H](C)C4)CC3)c(C)o2)c1 [Compound 34] | 56.1 µg/mL
25 | COc1cccc(OC)c1-c1nc(CN2CCC(C(=O)NCCCN3C[C@H](C)C[C@H](C)C3)CC2)c(C)o1 [Compound 37] | >76.0 µg/mL
26 | COc1cccc(F)c1-c1nc(CN2CCC(C(=O)NCCCN3C[C@H](C)C[C@H](C)C3)CC2)c(C)o1 [Compound 38] | >74.0 µg/mL
27 | Cc1ccc2ccccc2c1-c1nc(CN2CCC(C(=O)NCCCN3C[C@H](C)C[C@H](C)C3)CC2)c(C)o1 [Compound 39] | >76.0 µg/mL
28 | COc1cccc(Cl)c1-c1nc(CN2CCC(C(=O)NCCCN3C[C@H](C)C[C@H](C)C3)CC2)c(C)o1 [Compound 42] | >76.0 µg/mL
29 | Cc1oc(-c2c(Cl)cccc2C(F)(F)F)nc1CN1CCC(C(=O)NCCCN2C[C@H](C)C[C@H](C)C2)CC1 [Compound 44] | 65.1 µg/mL
30 | COc1cccc(C)c1-c1nc(CN2CCC(C(=O)NCCCN3C[C@H](C)C[C@H](C)C3)CC2)c(C)o1 [Compound 45] | >73.0 µg/mL
31 | Cc1ccccc1-c1nc(CN2CCC(C(=O)NCCCN3CCCC(C(C)C)C3)CC2)c(C)o1 (centres unmarked) [Compound 52] | >71 µg/mL
32 | Cc1ccccc1-c1nc(CN2CCC(C(=O)NCCCN3CCCC(CC(C)C)C3)CC2)c(C)o1 (centres unmarked) [Compound 53] | 54.9 µg/mL
33 | Cc1cccc(Cl)c1-c1nc(CN2CCC(C(=O)NCCCN3CCCC(C)C3)CC2)c(C)o1 (centres unmarked) [Compound 59] | 52.6 µg/mL
34 | Cc1cccc(Cl)c1-c1nc(CN2CCC(C(=O)NCCCN3CCC(C)(C)CC3)CC2)c(C)o1 [Compound 60] | >74 µg/mL
35 | Cc1cccc(Cl)c1-c1nc(CN2CCC(C(=O)NCCCN3CCC(C(C)C)CC3)CC2)c(C)o1 [Compound 61] | >76 µg/mL
36 | Cc1ccc2ccccc2c1-c1nc(CN2CCC(C(=O)NCCCN3C[C@H](C)C[C@H](C)C3)CC2)c(C)o1 [Compound 62] | >76.1 µg/mL
37 | Cc1ccccc1-c1nc(CN2CCC(C(=O)NCCCN3C[C@H](C)C[C@H](C)C3)CC2)c(C)o1 [Compound 63] | 54.8 µg/mL
38 | Cc1ccccc1-c1nc(CN2CCC(C(=O)NCCCN3C[C@H](C)C[C@H](C)C3)CC2)c(C)o1 [Compound 64] | >69.0 µg/mL
39 | Cc1cc(-c2nc(CN3CCC(C(=O)NCCCN4C[C@H](C)C[C@H](C)C4)CC3)co2)ccc1F [Compound 70] | >70 µg/mL

Results, then the molecule that gave them:

Row | Sol. | Molecule
40 | >71.0 µg/mL | Cc1ccccc1-c1nc(CN2CCC(C(=O)NCCCN3CCC(C(C)C)CC3)CC2)c(C)o1 [Compound 5]
41 | >67.0 µg/mL | Cc1ccccc1-c1nc(CN2CCC(C(=O)NCCCN3CCC(C)CC3)CC2)c(C)o1 [Compound 10]
42 | >67.0 µg/mL | Cc1ccccc1-c1nc(CN2CCC(C(=O)N3CCN(CCN(C)C)CC3)CC2)c(C)o1 [Compound 14]
43 | >72.0 µg/mL | Cc1oc(-c2ccccc2Cl)nc1CN1CCC(C(=O)NCCCN2C[C@H](C)C[C@H](C)C2)CC1 [Compound 15]
44 | 55.9 µg/mL | CCc1ccccc1-c1nc(CN2CCC(C(=O)NCCCN3C[C@H](C)C[C@H](C)C3)CC2)c(C)o1 [Compound 17]
45 | >69.0 µg/mL | Cc1ccc(-c2nc(CN3CCC(C(=O)NCCCN4C[C@H](C)C[C@H](C)C4)CC3)c(C)o2)cc1 [Compound 19]
46 | >71.0 µg/mL | Cc1ccccc1-c1nc(CN2CCC(C(=O)NCCCCN3C[C@H](C)C[C@H](C)C3)CC2)c(C)o1 [Compound 21]
47 | >72.0 µg/mL | Cc1oc(-c2cccc(Cl)c2)nc1CN1CCC(C(=O)NCCCN2C[C@H](C)C[C@H](C)C2)CC1 [Compound 24]
48 | >74.0 µg/mL | Cc1oc(-c2cccc3ccccc23)nc1CN1CCC(C(=O)NCCCN2C[C@H](C)C[C@H](C)C2)CC1 [Compound 31]
49 | >71.0 µg/mL | Cc1ccc(-c2nc(CN3CCC(C(=O)NCCCN4C[C@H](C)C[C@H](C)C4)CC3)c(C)o2)c(C)c1 [Compound 32]
50 | >75.0 µg/mL | Cc1oc(-c2c(F)cccc2Cl)nc1CN1CCC(C(=O)NCCCN2C[C@H](C)C[C@H](C)C2)CC1 [Compound 33]
51 | 62.1 µg/mL | Cc1oc(-c2c3ccccc3cc3ccccc23)nc1CN1CCC(C(=O)NCCCN2C[C@H](C)C[C@H](C)C2)CC1 [Compound 36]
52 | >83.0 µg/mL | COc1cccc(Br)c1-c1nc(CN2CCC(C(=O)NCCCN3C[C@H](C)C[C@H](C)C3)CC2)c(C)o1 [Compound 40]
53 | >83.0 µg/mL | Cc1oc(-c2c(Cl)cccc2Br)nc1CN1CCC(C(=O)NCCCN2C[C@H](C)C[C@H](C)C2)CC1 [Compound 41]
54 | >72.0 µg/mL | Cc1cccc(F)c1-c1nc(CN2CCC(C(=O)NCCCN3C[C@H](C)C[C@H](C)C3)CC2)c(C)o1 [Compound 46]
55 | >69.0 µg/mL | Cc1ccccc1-c1nc(CN2CCC(C(=O)NCCCN3C[C@H](C)C[C@@H](C)C3)CC2)c(C)o1 [Compound 47]
56 | >69.0 µg/mL | Cc1ccccc1-c1nc(CN2CCC(C(=O)NCCCN3CCC(C)(C)CC3)CC2)c(C)o1 [Compound 50]
57 | >69.0 µg/mL | Cc1ccccc1-c1nc(CN2CCC(C(=O)NCCCN3[C@H](C)CCC[C@@H]3C)CC2)c(C)o1 [Compound 51]
58 | > .71 µg/mL | Cc1ccccc1-c1nc(CN2CCC(C(=O)NCCCN3CC4CCCC(C4)C3)CC2)c(C)o1 [Compound 54]
59 | >71.0 µg/mL | Cc1ccccc1-c1nc(CN2CCC(C(=O)NCCCN3C[C@H](C)C[C@H](C)C3)CC2)c(C)s1 [Compound 65]
60 | >72 µg/mL | Cc1cc(-c2nc(CN3CCC(C(=O)NCCCN4CCC(C(C)C)CC4)CC3)co2)ccc1F [Compound 71]

same assay, conditions: pH 7.4

Row | Molecule | Sol.
61 | Cc1oc(-c2c(Cl)cccc2Cl)nc1CN1CCC(C(=O)NCCCN2C[C@H](C)C[C@H](C)C2)CC1 [Compound 35] | >77.0 µg/mL
62 | Cc1oc(-c2c(Br)cccc2Br)nc1CN1CCC(C(=O)NCCCN2C[C@H](C)C[C@H](C)C2)CC1 [Compound 43] | 62.4 µg/mL

Reference: patent publication US10202367B2, “Heterocyclic compounds and methods of use thereof” (priority 2014, dated 2019)
